Columns and labels:
[1] = test system: H1975 human non-small cell lung xenografts; experiment: H1975 EGFR mutant lung cancer xenograft mouse model, tumor growth; assay type: in vivo, female Nu/Nu mice; details: for TGI (tumor growth inhibition): Day 18, vs vehicle control, p<0.001
Procedure: This study determined the in vivo antitumor activity of T-A-32 administered in combination with osimertinib, an EGFR inhibitor and trametinib, a MEK inhibitor. This combination was tested in immunodeficient nude mice (Nu/Nu) bearing H1975 human non-small cell lung xenografts. H1975 was chosen as a xenograft model because H1975 harbors EGFR T790M/[…]L858R mutations. T970M is well known point mutation for osimertinib resistance and L858R is also known EGFR activation mutation.
Six- to 9-week-old female Nu/Nu mice were inoculated SC with 2×10^6 H1975 human non-small cell lung tumor cells in the right flank. Tumor growth was monitored twice per week using vernier calipers and the mean tumor volume (MTV) was calculated. When the MTV reached approximately 177 mm^3, animals were randomized into treatment groups (n=10/group) and dosed orally (PO) with either vehicle control (5% DMSO+95% PEG 400 (Vehicle 1)+0.5% hydroxypropyl methyl cellulose and 0.2% Tween-80 (Vehicle 2)+1% Tween 80 (Vehicle 3)) or T-A-32 at 75 mg/kg, osimertinib at 2.5 mg/kg, or trametinib at 1 mg/kg QD for 18 days.
Treatments started on Day 0, tumor size and body weight were measured twice per week, and the study was terminated when the vehicle control tumors reached a mean of approximately 1600 mm^3. Percent TGI was calculated on Day 18 when the control MTV reached the maximum allowable tumor volume. The mean maximum body weight change was determined for each group.

[2] = test system: A2058 cells (BRAF mutant); experiment: Apoptosis induction, caspase-3/7 activation (Incucyte live-cell imaging); assay type: cell-based; details: T-A-32 in combination with trametinib, compared with either single agent treatment alone
Text: (§1) This study determined the ability of T-A-32 to enhance apoptosis in combination with osimertinib and trametinib in epidermal growth factor receptor (EGFR) mutant cell lines, and in combination with trametinib in Kirsten rat sarcoma viral oncogene (KRAS) or v raf murine sarcoma viral oncogene homolog B (BRAF) mutant cancer cell lines.
(§2) Three EGFR mutant cell lines (HCC4006, HCC827, and NCI-H1975), 5 KRAS mutant cell lines (A549, HCT116, Capan-2, Calu-1, and LoVo), and 1 BRAF mutant cell line (A2058) from multiple cancer indications were tested. The EGFR mutant cell lines were treated with single agent T-A-32, osimertinib (an EGFR inhibitor), or trametinib (a mitogen-activated protein kinase kinase [MEK] inhibitor); a dual combination of osimertinib and trametinib; or a triple combination of T-A-32, osimertinib, and trametinib in a 96-well plate format. The KRAS and BRAF mutant cell lines were treated with single agent T-A-32 or trametinib, or a dual combination of T-A-32 and trametinib in a 96-well plate format. Apoptosis induction was assessed by monitoring the activation of caspase-3/7 using a probe that generates bright green fluorescence upon DEVD peptide cleavage by activated caspase-3/7 as an early indicator of apoptosis every 2 hours for approximately 96 hours.
(§3) All cell lines were cultured in the recommended medium supplemented with 10% fetal bovine serum (FBS) at 37° C. in a humidified atmosphere containing 5% CO2 until they were at least 80% confluent as follows: • HCC4006, HCC827, and NCI-H1975 cells in Roswell Park Memorial Institute 1640+10% FBS • A2058 cells in Dulbecco's Modified Eagle Medium+10% FBS • HCT-116, Capan-2, and Calu-1 cells in McCoy's 5A+10% FBS • LoVo and A549 cells in F 12K+10% FBS
(§4) Cells were trypsinized, counted by an automated cell counter, and added to all wells of a 96-well plate at 3000 cells/well in 100 μL of the appropriate medium (1 plate for each cell line). The next day, compounds were diluted in DMSO to 1000× concentration. CELLEVENT Caspase-3/7 Green READYPROBE Reagent was prepared as per manufacturer's instructions by adding 1 drop of READYPROBE reagent into 1 mL of the appropriate medium. Compounds were diluted in the READYPROBE/medium mixture to 3× concentration and 50 μL were added to the cells. The plates were subsequently scanned every 2 hours using an Incucyte S3 Live-Cell Analysis System (Sartorius) for a total of 72 to 136 hours depending on the cell line. Plates were maintained at 37° C. in a humidified atmosphere containing 5% CO2 over the course of experiment.

[3] = test system: Calu 1 cells (KRAS mutant); experiment: as above; assay type: cell-based; details: T-A-32 in combination with trametinib, compared with either single agent treatment alone
Text: as §1, §2, §3, §4

[4] = test system: Capan 2 cells (KRAS mutant); experiment: as above; assay type: cell-based; details: T-A-32 in combination with trametinib, compared with either single agent treatment alone
Text: as §1, §2, §3, §4

[5] = test system: HCC4006 cells (EGFR mutant NSCLC); experiment: as above; assay type: cell-based; details: triple combination of T-A-32, osimertinib, and trametinib, compared with the 3 single agent treatments and the dual combination of osimertinib and trametinib
Text: as §1, §2, §3, §4

[6] = test system: HCC827 cells (EGFR mutant NSCLC); experiment: as above; assay type: cell-based; details: triple combination of T-A-32, osimertinib, and trametinib, compared with the 3 single agent treatments and the dual combination of osimertinib and trametinib
Text: as §1, §2, §3, §4

A549 cells (KRAS mutant) = experiment: as above; assay type: cell-based, human; details: T-A-32 in combination with trametinib, compared with either single agent treatment alone
Text: as §1, §2, §3, §4

[7] = test system: HCT-116 cells (KRAS mutant); experiment: as above; assay type: cell-based, human; details: T-A-32 in combination with trametinib, compared with either single agent treatment alone
Text: as §1, §2, §3, §4

LoVo cells (KRAS mutant) = experiment: as above; assay type: cell-based, human; details: T-A-32 in combination with trametinib, compared with either single agent treatment alone
Text: as §1, §2, §3, §4

[8] = test system: NCI-H1975 cells (EGFR mutant NSCLC); experiment: as above; assay type: cell-based, human; details: triple combination of T-A-32, osimertinib, and trametinib, compared with the 3 single agent treatments and the dual combination of osimertinib and trametinib
Text: as §1, §2, §3, §4

[9] = test system: HCT-116 human colorectal carcinoma xenografts; experiment: HCT116 KRAS G13D mutant colorectal carcinoma xenograft mouse model, tumor growth; assay type: in vivo, female Nu/Nu mice; details: T-A-32 PO 75 mg/kg QD in combination with trametinib 0.5 mg/kg; Day 14; vs vehicle control; p<0.0001
Procedure: This study determined the in vivo antitumor activity of T-A-32 administered in combination with trametinib, a MEK inhibitor. This combination was tested in immunodeficient nude mice (Nu/Nu) bearing HCT-116 human colorectal carcinoma xenografts. HCT116 was chosen as a xenograft model because HCT116 harbors a the KRAS G13D mutation.
(§5) Six- to eight-week-old female Nu/Nu mice were inoculated subcutaneously with 1×10^6 HCT116 human colorectal carcinoma tumor cells in the right flank. Tumor growth was monitored twice per week using vernier calipers and the mean tumor volume (MTV) was calculated. When the MTV reached approximately 150-200 mm^3, approximately ten (10) days after cell inoculation, animals were randomized into treatment groups (n=10/group) and dosed orally (PO) with either vehicle control (5% DMSO+95% PEG 400 (Vehicle 1)+0.5% hydroxypropyl methyl cellulose and 0.2% Tween-80 (Vehicle 2)) or T-A-32 at 75 mg/kg, or trametinib at 0.5 mg/kg once per day (PO) for fourteen (14) days.
Tumor size and body weight were measured twice, and the study was terminated when the vehicle control tumors reached a mean of approximately 2000 mm^3. Percent TGI was calculated on Day 14 when the control MTV reached the maximum allowable tumor volume. The mean maximum body weight change was determined for each group.

[10] = test system: A549 human lung cancer xenografts; experiment: A549 KRAS G12S mutant lung cancer xenograft mouse model, tumor growth; assay type: in vivo, female Nu/Nu mice; details: T-A-32 PO 75 mg/kg QD in combination with trametinib 1.0 mg/kg; Day 25; vs vehicle control; p<0.0001
Procedure: This study determined the in vivo antitumor activity of T-A-32 administered in combination with trametinib, a MEK inhibitor. This combination was tested in immunodeficient nude mice (Nu/Nu) bearing A549 human lung cancer xenografts. A549 was chosen as a xenograft model because A549 cells harbor the KRAS G12S mutation.
as §5, with “with 5×10^6 A549” for “with 1×10^6 HCT116”, “human lung cancer” for “human colorectal carcinoma tumor”, “approximately eight (8)” for “approximately ten (10)”, “groups (n=8/group)” for “groups (n=10/group)”, “at 1.0” for “at 0.5”, “for twenty-five (25)” for “for fourteen (14)”
Tumor size and body weight were measured twice per week, and all treatments ended on day 25. Percent TGI was calculated on Day 25 when the control MTV reached the maximum allowable tumor volume. The mean maximum body weight change was determined for each group.

[11] = test system: LoVo human colorectal adenocarcinoma xenografts; experiment: LoVo KRAS G12D mutant colorectal adenocarcinoma xenograft mouse model, tumor growth; assay type: in vivo, female Nu/Nu mice; details: T-A-32 PO 75 mg/kg QD in combination with trametinib 1.0 mg/kg; Day 28; vs vehicle control; p<0.0001
Procedure: This study determined the in vivo antitumor activity of T-A-32 administered in combination with trametinib, a MEK inhibitor. This combination was tested in immunodeficient nude mice (Nu/Nu) bearing LoVo human colorectal adenocarcinoma xenografts. LoVo was chosen as a xenograft model because LoVo cells harbor the KRAS G12D mutation.
as §5, with “with 5×10^6 LoVo” for “with 1×10^6 HCT116”, “colorectal adenocarcinoma” for “colorectal carcinoma tumor”, “approximately eight (8)” for “approximately ten (10)”, “at 1.0” for “at 0.5”, “for twenty-eight (28)” for “for fourteen (14)”
Tumor size and body weight were measured twice per week, and all treatments ended on day 28. Percent TGI was calculated on Day 28 when the control MTV reached the maximum allowable tumor volume. The mean maximum body weight change was determined for each group.

Row | Structure (SMILES) | TGI (tumor growth inhibition) ([1]; trametinib 1 mg/kg in combination with osimertinib 2.5 mg/kg, PO QD) [%] | apoptosis (caspase-3/7 activation) [2] | apoptosis (caspase-3/7 activation) [3] | apoptosis (caspase-3/7 activation) [4] | apoptosis (caspase-3/7 activation) [5] | apoptosis (caspase-3/7 activation) [6] | apoptosis (caspase-3/7 activation) (A549 cells (KRAS mutant)) | apoptosis (caspase-3/7 activation) [7] | apoptosis (caspase-3/7 activation) (LoVo cells (KRAS mutant)) | apoptosis (caspase-3/7 activation) [8] | TGI (tumor growth inhibition) ([1]; T-A-32 PO 75 mg/kg QD in combination with osimertinib (2.5 mg/kg)) [%] | TGI (tumor growth inhibition) ([1]; T-A-32 in combination with both trametinib and osimertinib, PO QD) [%] | tumor regression ([1]; triple combination of T-A-32, osimertinib, and trametinib, H1975 xenograft) | TGI (tumor growth inhibition) [9] [%] | TGI (tumor growth inhibition) [10] [%] | TGI (tumor growth inhibition) [11] [%]
1 | CC(=O)Nc1cccc(-n2c(=O)n(C3CC3)c(=O)c3c(Nc4ccc(I)cc4F)n(C)c(=O)c(C)c32)c1 [trametinib, reference compound] | 71 | – | – | – | – | – | – | – | – | – | – | – | – | – | – | –
2 | CNS(=O)(=O)c1ccc(NCc2ccc(C(F)(F)F)cc2)c(-c2cn(C)cn2)c1 [T-A-32, N-methyl-3-(1-methyl-1H-imidazol-4-yl)-4-((4-(trifluoromethyl)benzyl)amino)benzenesulfonamide] | – | enhanced apoptosis | enhanced apoptosis | enhanced apoptosis | enhanced apoptosis | enhanced apoptosis | enhanced apoptosis | enhanced apoptosis | enhanced apoptosis | enhanced apoptosis | 88 | 99 | complete regressions | 78 | 83 | 75

— US20240261288A1, “COMBINATION OF A 3-(IMIDAZOL-4-YL)-4-(AMINO)-BENZENES[…] INHIBITOR WITH AN EGFR INHIBITOR AND/OR MEK INHIBITOR FOR USE IN THE TREATMENT OF LUNG CANCER” (lkena Oncology, Inc., priority 2021, published 2024)
